We go through 39 molecules from the Kinase Knowledgebase extract (Sharma et al. 2016).

The test addresses MAPK14 (human) (UniProt Q16539). Kind of test: Inhibition of MAPK14 Kinase Activity.

MAPK14 (human), sequence (Q16539 whole entry, looked up): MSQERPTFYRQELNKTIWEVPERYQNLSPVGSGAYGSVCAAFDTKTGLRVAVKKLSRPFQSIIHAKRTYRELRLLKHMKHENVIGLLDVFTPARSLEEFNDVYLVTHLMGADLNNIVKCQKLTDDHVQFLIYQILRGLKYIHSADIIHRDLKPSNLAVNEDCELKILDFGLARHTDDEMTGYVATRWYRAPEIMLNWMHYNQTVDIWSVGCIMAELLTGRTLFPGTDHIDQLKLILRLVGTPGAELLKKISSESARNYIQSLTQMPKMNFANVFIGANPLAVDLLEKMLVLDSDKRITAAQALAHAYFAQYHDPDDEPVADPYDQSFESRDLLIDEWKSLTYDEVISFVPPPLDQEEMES

As for `Cc1cc(F)ccc1-c1nc(NCC(C)(C)O)nc2c1ccc(=O)n2C1CCCCC1`, the IC50 (as a rule, the concentration that gives 50% inhibition) was under 10 µM.
The value for `Cc1cc(F)ccc1-c1nc(NC2CCCCC2)nc2c1ccc(=O)n2-c1ccccc1C` was under 10 µM; that for `CSc1nc(-c2ccccc2F)c2ccc(=O)n(CC3CC3)c2n1` was under 10 µM.
In the case of `Cc1cc(F)ccc1-c1nc(NC[C@@H](C)O)nc2c1ccc(=O)n2-c1ccccc1C`, the IC50 was under 10 µM.
The value for `CS(=O)(=O)c1nc(-c2ccccc2Cl)c2ccc(=O)n(-c3ccccc3Cl)c2n1` was under 10 µM.
The value for `Cc1cc(F)ccc1-c1nc(NCCc2noc(=O)[nH]2)nc2c1ccc(=O)n2-c1c(F)cccc1F` was under 10 µM.
The value for `Cc1cc(F)ccc1-c1nc(N[C@H]2CC[C@H](O)CC2)nc2c1ccc(=O)n2-c1c(F)cccc1F` was under 10 µM.
For `CCN(CC)CCNc1nc(-c2ccc(F)cc2C)c2ccc(=O)n(-c3c(F)cccc3F)c2n1`, the IC50 was under 10 µM.
The molecule `O=C(O)CNc1nc(-c2ccccc2Cl)c2ccc(=O)n(-c3ccccc3Cl)c2n1` showed a concentration for half-maximal inhibition (IC50) of under 10 µM.
In the case of `CSc1nc(NC2CCCCC2)c(C=O)c(-c2ccc(F)cc2C)n1`, the IC50 is under 10 µM.
The value for `CSCCCOc1nc(-c2ccc(F)cc2C)c2ccc(=O)n(-c3c(F)cccc3F)c2n1` was under 10 µM; that for `Cc1cc(F)ccc1-c1nc(NCC(=O)NC2CC2)nc2c1ccc(=O)n2-c1c(F)cccc1F` was under 10 µM; that for `Cc1cc(F)ccc1-c1nc(NCCNC(=O)Nc2ccccc2)nc2c1ccc(=O)n2-c1c(F)cccc1F` was under 10 µM.
The molecule `COCCNc1nc(-c2ccc(F)cc2C)c2ccc(=O)n(-c3c(F)cccc3F)c2n1` returned an IC50 of under 10 µM.
In turn, `CS(=O)(=O)Nc1nc(-c2ccccc2F)c2ccc(=O)n(-c3ccccc3F)c2n1` yielded an IC50 of under 10 µM.
The value for `Cc1cc(F)ccc1-c1nc(NCC(=O)N2CCOCC2)nc2c1ccc(=O)n2-c1c(F)cccc1F` was under 10 µM; that for `CCOC(=O)CNc1nc(-c2ccccc2Cl)c2ccc(=O)n(C(CC)CC)c2n1` was under 10 µM.
The value for `Cc1cc(F)ccc1-c1nc(NCCCS(C)(=O)=O)nc2c1ccc(=O)n2-c1c(F)cccc1F` was under 10 µM; that for `Cc1cc(F)ccc1-c1nc(NCCNC(=O)OC(C)(C)C)nc2c1ccc(=O)n2-c1c(F)cccc1F` was under 10 µM; that for `CCN(CC)CCNc1nc(-c2ccccc2Cl)c2ccc(=O)n(-c3ccccc3Cl)c2n1` was under 10 µM.
For the molecule `Cc1cc(F)ccc1-c1nc(NCCO)nc2c1ccc(=O)n2-c1ccccc1C`, the IC50 was under 10 µM.
The value for `CCOc1nc(-c2ccc(F)cc2C)c2ccc(=O)n(C3CCCCC3)c2n1` was under 10 µM; that for `Cc1cc(F)ccc1-c1nc(N[C@H]2CCCC[C@@H]2O)nc2c1ccc(=O)n2-c1c(F)cccc1F` was under 10 µM.
The value for `Cc1cc(F)ccc1-c1nc(NCC2CCS(=O)(=O)C2)nc2c1ccc(=O)n2-c1c(F)cccc1F` (centres undefined) was under 10 µM; that for `CCC(C)n1c(=O)ccc2c(-c3ccccc3F)nc(SC)nc21` (centres undefined) was under 10 µM; that for `Cc1cc(F)ccc1-c1nc(NC[C@H](C)O)nc2c1ccc(=O)n2C1CCCCC1` was under 10 µM.
The value for `CSc1nc(-c2ccc(F)cc2C)c2ccc(=O)n(C3CC3)c2n1` was under 10 µM; that for `Cc1cc(F)ccc1-c1nc(NCC(N)=O)nc2c1ccc(=O)n2-c1c(F)cccc1F` was under 10 µM.
Regarding `Cc1cc(F)ccc1-c1nc(NCC(=O)O)nc2c1ccc(=O)n2-c1c(F)cccc1F`, the IC50 is under 10 µM.
In turn, `Cc1cc(F)ccc1-c1nc(NC(CO)CO)nc2c1ccc(=O)n2C(C)C` had an IC50 of under 10 µM.
The value for `COc1nc(-c2ccccc2F)c2ccc(=O)n(-c3ccccc3Cl)c2n1` was under 10 µM.
The molecule `CSc1nc(-c2ccc(F)cc2C)c2ccc(=O)n(-c3c(C)cccc3C)c2n1` registered an IC50 of under 10 µM.
The value for `Cc1cc(F)ccc1-c1nc(NCC(=O)NCCO)nc2c1ccc(=O)n2-c1c(F)cccc1F` was under 10 µM.
The value for `Cc1cc(F)ccc1-c1nc(NCCc2nnn[nH]2)nc2c1ccc(=O)n2-c1c(F)cccc1F` was under 10 µM.
`CSc1nc(-c2ccccc2F)c2ccc(=O)n(-c3ccccc3Cl)c2n1` came in with an IC50 of under 10 µM.
The value for `Cc1cc(F)ccc1-c1nc(NC2CCC(O)CC2)nc2c1ccc(=O)n2-c1ccccc1F` (centres undefined) was under 10 µM.
`Cc1cc(F)ccc1-c1nc(N(C)S(C)(=O)=O)nc2c1ccc(=O)n2C(C)C` displayed an IC50 of under 10 µM.
Turning to `Cc1cc(F)ccc1-c1nc(Nc2nnn[nH]2)nc2c1ccc(=O)n2-c1c(F)cccc1F`, the IC50 is under 10 µM.
`Cc1cc(F)ccc1-c1nc(NCCO)nc2c1ccc(=O)n2-c1c(F)cccc1F` displayed an IC50 of under 10 µM.
